Results reported in patent US20200286590A1, “SYSTEMS, APPARATUS, AND METHODS FOR GENERATING AND ANALYZING RESISTOME PROFILES” (priority 2014, published 2020).
Converted amounts (≈) assume the structure as drawn. Where two headings read alike, the source gives them in different places. One block for each compound: values may come before it.

Assays:
[1] = test system: K. pneumoniae isolate 850707; test: Minimum inhibitory concentration (MIC) results, isolate 850707; format: cell-based; conditions: for MIC: Klebsiella pneumoniae, read-out: MIC Value
From the text: (§1) The ability to view additional or varied information may be set by a user as a preference on a customized basis, or the information may be hidden and made available based on a request or selection from a user according to some embodiments. For example, a display interface may be configured such that the user can make a selection on a short form name or symbol to expand a field or open a new window on the display that provides detailed antibiotic resistance data or other diagnostically useful information for a subject sample. For example, in TABLE 17, the differences in minimum inhibitory concentration (MIC) results for two isolate species are provided.
(§2) In TABLE 18, the isolates are numbered and linked to an isolate species (K. pneumoniae); resistome profiles including the species (K1), phenotype (CRE), genotype (IMP and C1), and profile uniqueness identifiers indicating sequential unique patterns compared to an associated database (1-1 and 2-1, respectively); Acuitas MDRO Gene Test results (IMP(A) and CTX-M(A)); and reported genotypes listed in rank order of clinical importance (IMP-26, CTX-M-15, and SHV-28(u), and IMP-4, CTX-M-15, SHV-1(b), and TEM, respectively). The trailing “1s” in the assigned resistome profiles (i.e., the second digit of each profile uniqueness identifier) reflect the first occurrences of these patterns/profiles derived based on data collected from subject sample measurements. In this example, the tests are not designed to detect SHV, TEM, ACT/MIR, CMY-2, DHA-1, ACT-16, or VEB-1.

[2] = test system: K. pneumoniae isolate 850793; test: Minimum inhibitory concentration (MIC) results, isolate 850793; format: cell-based; conditions: for MIC: Klebsiella pneumoniae, read-out: MIC Value
From the text: as §1, §2

[3] = test system: carbapenem-resistant Enterobacteriaceae; conditions: CRE, cited from earlier work
[4] = test system: D-alanyl-D-lactate variation of NAM/NAG-peptide subunits; conditions: D-alanyl-D-lactate versus D-alanyl-D-alanine; cited from earlier work
[5] = test system: D-alanyl-D-serine variation of NAM/NAG-peptide subunits; conditions: D-alanyl-D-serine versus D-alanyl-D-alanine; cited from earlier work
[6] = test system: cephalosporin-resistant (3rd or 4th generation) Gram-negative bacillus; conditions: CephR-GNB; Revised (M100-S20); cited from earlier work
[7] = Isolate No. 850707, K. pneumoniae, IMP-26, CTX-M-15, SHV-28(u)
[8] = Isolate No. 850793, K. pneumoniae, IMP-4, CTX-M-15, SHV-1(b), TEM

Compound: CN(C)c1cc(NC(=O)CNC(C)(C)C)c(O)c2c1C[C@H]1C[C@H]3[C@H](N(C)C)C(O)=C(C(N)=O)C(=O)[C@@]3(O)C(O)=C1C2=O [Tigecycline]
MIC [1]: 2 µg/mL (≈ 3.41 µM) | MIC [2]: 1 µg/mL (≈ 1.71 µM)

MIC [1, 7]: 2 µg/mL (≈ 6.68 µM) | MIC [2, 8]: 8 µg/mL (≈ 26.7 µM)
Compound: C[C@@H](O)[C@H]1C(=O)N2C(C(=O)O)=C(SCCN=CN)C[C@H]12 [Imipenem]

MIC [1, 7]: 32 µg/mL (≈ 91.6 µM) | MIC [2, 8]: 32 µg/mL (≈ 91.6 µM)
Compound: CC1(C)S[C@@H]2[C@H](NC(=O)[C@H](N)c3ccccc3)C(=O)N2[C@H]1C(=O)O [Ampicillin]

Compound: CO/N=C(\C(=O)N[C@@H]1C(=O)N2C(C(=O)O)=C(COC(C)=O)CS[C@H]12)c1csc(N)n1 [Cefotaxime]
MIC breakpoint, Intermediate ([3]; Revised (M100-S20)): 2 µg/mL (≈ 4.39 µM) | MIC breakpoint, Resistant ([3]; Revised (M100-S20)): ≥4 µg/mL | MIC breakpoint, Susceptible ([3]; Revised (M100-S20)): ≤1 µg/mL

Compound: Colistin/TWEEN
MIC Value [1, 7]: 0.12 µg/mL | MIC Value [2, 8]: 0.12 µg/mL

Compound: CN[C@H](CC(C)C)C(=O)N[C@H]1C(=O)N[C@@H](CC(N)=O)C(=O)N[C@H]2C(=O)N[C@H]3C(=O)N[C@H](C(=O)N[C@H](C(=O)O)c4cc(O)cc(O)c4-c4cc3ccc4O)[C@H](O)c3ccc(c(Cl)c3)Oc3cc2cc(c3O[C@@H]2O[C@H](CO)[C@@H](O)[C@H](O)[C@H]2O[C@H]2C[C@](C)(N)[C@H](O)[C@H](C)O2)Oc2ccc(cc2Cl)[C@H]1O [vancomycin]
decrease in affinity [4]: 1000 fold | loss of affinity between vancomycin and the peptide [5]: six-fold

MIC [1, 7]: 32 µg/mL (≈ 83.4 µM) | MIC [2, 8]: 8 µg/mL (≈ 20.9 µM)
Compound: C[C@@H](O)[C@H]1C(=O)N2C(C(=O)O)=C(S[C@@H]3CN[C@H](C(=O)N(C)C)C3)[C@H](C)[C@H]12 [Meropenem]
MIC breakpoint, Intermediate ([3]; Current Breakpoints (M100-S22)): 2 µg/mL (≈ 5.22 µM) | MIC breakpoint, Resistant ([3]; Current Breakpoints (M100-S22)): ≥4 µg/mL | MIC breakpoint, Susceptible ([3]; Current Breakpoints (M100-S22)): ≤1 µg/mL

MIC [1, 7]: 32 µg/mL (≈ 54.6 µM) | MIC [2, 8]: 32 µg/mL (≈ 54.6 µM)
Compound: NCC[C@H](O)C(=O)N[C@@H]1C[C@H](N)[C@@H](O[C@H]2O[C@H](CN)[C@@H](O)[C@H](O)[C@H]2O)[C@H](O)[C@H]1O[C@H]1O[C@H](CO)[C@@H](O)[C@H](N)[C@H]1O [Amikacin]

MIC [1, 7]: 6 µg/mL (≈ 12.6 µM) | MIC [2, 8]: 1 µg/mL (≈ 2.1 µM)
Compound: C[C@@H](O)[C@H]1C(=O)N2C(C(=O)O)=C(S[C@@H]3CN[C@H](C(=O)Nc4cccc(C(=O)O)c4)C3)[C@H](C)[C@H]12 [Ertapenem]
MIC breakpoint, Intermediate ([3]; Current Breakpoints (M100-S22)): 1 µg/mL (≈ 2.1 µM) | MIC breakpoint, Resistant ([3]; Current Breakpoints (M100-S22)): ≥2 µg/mL | MIC breakpoint, Susceptible ([3]; Current Breakpoints (M100-S22)): ≤0.5 µg/mL

MIC [1, 7]: 16 µg/mL (≈ 29.3 µM) | MIC [2, 8]: 128 µg/mL (≈ 234 µM)
Compound: CC(C)(O/N=C(\C(=O)N[C@@H]1C(=O)N2C(C(=O)[O-])=C(C[n+]3ccccc3)CS[C@H]12)c1csc(N)n1)C(=O)O [Ceftazidime]
MIC breakpoint, Intermediate ([3]; Revised (M100-S20)): 8 µg/mL (≈ 14.6 µM) | MIC breakpoint, Resistant ([3]; Revised (M100-S20)): ≥16 µg/mL | MIC breakpoint, Susceptible ([3]; Revised (M100-S20)): ≤4 µg/mL | MIC breakpoint, Intermediate [6]: 8 µg/mL (≈ 14.6 µM) | MIC breakpoint, Resistant [6]: ≥16 µg/mL | MIC breakpoint, Susceptible [6]: ≤4 µg/mL

MIC [1, 7]: 32 µg/mL (≈ 76.1 µM) | MIC [2, 8]: 4 µg/mL (≈ 9.51 µM)
Compound: C[C@@H](O)[C@H]1C(=O)N2C(C(=O)O)=C(S[C@@H]3CN[C@H](CNS(N)(=O)=O)C3)[C@H](C)[C@H]12 [Doripenem]
MIC breakpoint, Intermediate ([3]; Current Breakpoints (M100-S22)): 2 µg/mL (≈ 4.76 µM) | MIC breakpoint, Resistant ([3]; Current Breakpoints (M100-S22)): ≥4 µg/mL | MIC breakpoint, Susceptible ([3]; Current Breakpoints (M100-S22)): ≤1 µg/mL

Compound: CO/N=C(\C(=O)N[C@@H]1C(=O)N2C(C(=O)O)=C(CSc3nc(=O)c(=O)[nH]n3C)CS[C@H]12)c1csc(N)n1 [Ceftriaxone]
MIC breakpoint, Intermediate ([3]; Revised (M100-S20)): 2 µg/mL (≈ 3.61 µM) | MIC breakpoint, Resistant ([3]; Revised (M100-S20)): ≥4 µg/mL | MIC breakpoint, Susceptible ([3]; Revised (M100-S20)): ≤1 µg/mL

MIC [1, 7]: 1 µg/mL (≈ 2.77 µM) | MIC [2, 8]: 0.5 µg/mL (≈ 1.38 µM)
Compound: C[C@H]1COc2c(N3CCN(C)CC3)c(F)cc3c(=O)c(C(=O)O)cn1c23 [Levofloxacin]

MIC [1, 7]: 16 µg/mL (≈ 33.3 µM) | MIC [2, 8]: 16 µg/mL (≈ 33.3 µM)
Compound: CO/N=C(\C(=O)N[C@@H]1C(=O)N2C(C(=O)[O-])=C(C[N+]3(C)CCCC3)CS[C@H]12)c1csc(N)n1 [Cefepime]
MIC breakpoint, Intermediate [6]: 16 µg/mL (≈ 33.3 µM) | MIC breakpoint, Resistant [6]: ≥32 µg/mL | MIC breakpoint, Susceptible [6]: ≤8 µg/mL
